What was measured:
Haemonchus contortus L3 = experiment: microbe, parasite or virus in culture; format: cell-based; conditions: for minimal effective concentration: Haemonchus contortus, 96 h, read-out: HcL3 Minimal Effective Concentration (MEC)
D. immitis microfilariae = experiment: Dirofilaria immitis, microfilariae (DiMF) in vitro motility assay; format: cell-based; conditions: for minimal effective concentration: Dirofilaria immitis, 72 h, read-out: DiMF minimally effective dose (MEC)

## O=C(NCc1ccnc(Cl)c1)n1c2c(c3cc(Br)c(Br)cc31)CN(C/C=C/c1ccc(Cl)cc1)CC2 [Example 198, (E)-7,8-dibromo-2-(3-(4-chlorophenyl)allyl)-N-((2-chloropyridin-4-yl)methyl)-1,2,3,4-tetrahydro-5H-pyrido[4,3-b]indole-5-carboxamide]
Haemonchus contortus L3
  minimal effective concentration: 1 µM
D. immitis microfilariae
  minimal effective concentration: 5.7 µM

## N#Cc1ccc2c(c1)c1c(n2C(=O)NCc2ccnc(Cl)c2)CCN(C/C=C/c2ccc(Br)c(F)c2)C1 [Example 85, (E)-2-(3-(4-bromo-3-fluorophenyl)allyl)-N-((2-chloropyridin-4-yl)methyl)-8-cyano-1,2,3,4-tetrahydro-5H-pyrido[4,3-b]indole-5-carboxamide]
Haemonchus contortus L3
  minimal effective concentration: 0.1 µM
D. immitis microfilariae
  minimal effective concentration: > 100 µM

## N#Cc1ccc2c(c1)c1c(n2C(=O)NCc2ccnc(O)c2)CCN(C/C=C/c2ccc(Cl)c(Cl)c2)C1 [Example 449, (E)-8-cyano-2-(3-(3,4-dichlorophenyl)allyl)-N-((2-hydroxypyridin-4-yl)methyl)-1,2,3,4-tetrahydro-5H-pyrido[4,3-b]indole-5-carboxamide]
Haemonchus contortus L3
  minimal effective concentration: > 100 µM
D. immitis microfilariae
  minimal effective concentration: > 100 µM

## N-((2-chloropyridin-4-yl)methyl)-2-((6-fluoronaphthalen-2-yl)methyl)-7-(trifluoromethoxy)-1,2,3,4-tetrahydro-5H-pyrido[4,3-b]indole-5-carboxamide [Example 366]
Haemonchus contortus L3
  HcL3 Minimal Effective Concentration (MEC): >100 µM
D. immitis microfilariae; decrease in microfilariae motility by subjective visual assessment, observed at 72 hours
  DiMF minimally effective dose (MEC): 2.4 µM

## O=C(NCc1ccnc(Cl)c1)n1c2c(c3cc(Cl)ccc31)CN(C/C=C/c1ccc(F)cc1)CC2 [Example 244, (E)-8-chloro-N-((2-chloropyridin-4-yl)methyl)-2-(3-(4-fluorophenyl)allyl)-1,2,3,4-tetrahydro-5H-pyrido[4,3-b]indole-5-carboxamide]
Haemonchus contortus L3
  minimal effective concentration: 0.7 µM
D. immitis microfilariae
  minimal effective concentration: 10 µM

## N#Cc1ccc2c3c(n(C(=O)NCc4ccnc(Cl)c4)c2c1)CCN(C/C=C/c1cc(F)ccc1Br)C3 [Example 10, (E)-2-(3-(2-bromo-5-fluorophenyl)allyl)-N-((2-chloropyridin-4-yl)methyl)-7-cyano-1,2,3,4-tetrahydro-5H-pyrido[4,3-b]indole-5-carboxamide]
Haemonchus contortus L3
  minimal effective concentration: 1 µM
D. immitis microfilariae
  minimal effective concentration: > 100 µM

## N#Cc1ccc(/C=C/CN2CCc3c(c4cc(OC(F)(F)F)ccc4n3C(=O)NCc3ccnc(F)c3)C2)cc1F [Example 402, (E)-2-(3-(4-cyano-3-fluorophenyl)allyl)-N-((2-fluoropyridin-4-yl)methyl)-8-(trifluoromethoxy)-1,2,3,4-tetrahydro-5H-pyrido[4,3-b]indole-5-carboxamide]
Haemonchus contortus L3
  minimal effective concentration: 0.3 µM
D. immitis microfilariae
  minimal effective concentration: 5.7 µM

## COc1ccc(/C=C/CN2CCc3c(c4c(OC(F)(F)F)cccc4n3C(=O)NCc3ccnc(Cl)c3)C2)cc1 [Example 359, (E)-N-((2-chloropyridin-4-yl)methyl)-2-(3-(4-methoxyphenyl)allyl)-9-(trifluoromethoxy)-1,2,3,4-tetrahydro-5H-pyrido[4,3-b]indole-5-carboxamide]
Haemonchus contortus L3
  minimal effective concentration: 3.3 µM
D. immitis microfilariae
  minimal effective concentration: 3.3 µM

## N#Cc1ccc2c(c1)c1c(n2C(=O)NCc2ccnc(Cl)c2)CCN(C/C=C/c2cc(Br)ccc2F)C1 [Example 78, (E)-2-(3-(5-bromo-2-fluorophenyl)allyl)-N-((2-chloropyridin-4-yl)methyl)-8-cyano-1,2,3,4-tetrahydro-5H-pyrido[4,3-b]indole-5-carboxamide]
Haemonchus contortus L3
  minimal effective concentration: 0.6 µM
D. immitis microfilariae
  minimal effective concentration: > 100 µM

## O=C(NCc1cnc(Cl)s1)n1c2c(c3c(Cl)cccc31)CN(C/C=C/c1ccc(Cl)cc1)CC2 [Example 231, (E)-9-chloro-2-(3-(4-chlorophenyl)allyl)-N-((2-chlorothiazol-5-yl)methyl)-1,2,3,4-tetrahydro-5H-pyrido[4,3-b]indole-5-carboxamide]
Haemonchus contortus L3
  minimal effective concentration: 3.3 µM
D. immitis microfilariae
  minimal effective concentration: 13.5 µM

## O=C(NCc1ccnc(Cl)c1)n1c2c(c3c(C(F)(F)F)cc(F)cc31)CN(C/C=C/c1ccc(F)cc1)CC2 [Example 324, (E)-N-((2-chloropyridin-4-yl)methyl)-7-fluoro-2-(3-(4-fluorophenyl)allyl)-9-(trifluoromethyl)-1,2,3,4-tetrahydro-5H-pyrido[4,3-b]indole-5-carboxamide]
Haemonchus contortus L3
  minimal effective concentration: 3.3 µM
D. immitis microfilariae
  minimal effective concentration: 10 µM

## O=C(NCc1ccnc(Cl)c1)n1c2c(c3ccc(OC(F)(F)F)cc31)CN(C/C=C/c1ccc(Cl)c(Cl)c1)CC2 [Example 355, (E)-N-((2-chloropyridin-4-yl)methyl)-2-(3-(3,4-dichlorophenyl)allyl)-7-(trifluoromethoxy)-1,2,3,4-tetrahydro-5H-pyrido[4,3-b]indole-5-carboxamide]
Haemonchus contortus L3
  minimal effective concentration: 1 µM
D. immitis microfilariae
  minimal effective concentration: 69.1 µM

## N#Cc1ccc2c(c1)c1c(n2C(=O)NCc2ccnc(Cl)c2)CCN(C/C=C/c2cc(F)cc(F)c2)C1 [Example 90, (E)-N-((2-chloropyridin-4-yl)methyl)-8-cyano-2-(3-(3,5-difluorophenyl)allyl)-1,2,3,4-tetrahydro-5H-pyrido[4,3-b]indole-5-carboxamide]
Haemonchus contortus L3
  minimal effective concentration: 0.1 µM
D. immitis microfilariae
  minimal effective concentration: 3.3 µM

## O=C(NCc1ccnc(F)c1)n1c2c(c3cc(-c4ccc(Cl)cc4)ccc31)CN(C/C=C/c1ccc(Cl)cc1)CC2 [Example 461, (E)-8-(4-chlorophenyl)-2-(3-(4-chlorophenyl)allyl)-N-((2-fluoropyridin-4-yl)methyl)-1,2,3,4-tetrahydro-5H-pyrido[4,3-b]indole-5-carboxamide]
Haemonchus contortus L3
  minimal effective concentration: 33 µM
D. immitis microfilariae
  minimal effective concentration: > 100 µM

## O=C(NCc1ccnc(Cl)c1)n1c2c(c3cc(F)c(Cl)cc31)CN(C/C=C/c1ccc(F)c(F)c1)CC2 [Example 300, (E)-7-chloro-N-((2-chloropyridin-4-yl)methyl)-2-(3-(3,4-difluorophenyl)-allyl)-8-fluoro-1,2,3,4-tetrahydro-5H-pyrido[4,3-b]indole-5-carboxamide]
Haemonchus contortus L3
  minimal effective concentration: 0.5 µM
D. immitis microfilariae
  minimal effective concentration: 10 µM

## O=C(NCc1ccnc(Cl)c1)n1c2c(c3ccc(OC(F)(F)F)cc31)CN(Cc1cc3ccc(Cl)cc3cn1)CC2 [Example 365, 2-((7-chloroisoquinolin-3-yl)methyl)-N-((2-chloropyridin-4-yl)methyl)-7-(trifluoromethoxy)-1,2,3,4-tetrahydro-5H-pyrido[4,3-b]indole-5-carboxamide]
Haemonchus contortus L3
  minimal effective concentration: > 100 µM
D. immitis microfilariae
  minimal effective concentration: 4.4 µM

## O=C(NCc1ccnc(Cl)c1)n1c2c(c3cc(OC(F)(F)F)ccc31)CN(C/C=C/c1ccc(F)cc1F)CC2 [Example 387, (E)-N-((2-chloropyridin-4-yl)methyl)-2-(3-(2,4-difluorophenyl)allyl)-8-(trifluoromethoxy)-1,2,3,4-tetrahydro-5H-pyrido[4,3-b]indole-5-carboxamide]
Haemonchus contortus L3
  minimal effective concentration: 0.2 µM
D. immitis microfilariae
  minimal effective concentration: 3.3 µM

## CS(=O)(=O)c1ccc2c(c1)c1c(n2C(=O)NCc2ccnc(Cl)c2)CCN(C/C=C/c2ccc(Cl)c(Cl)c2)C1 [Example 458, (E)-N-((2-chloropyridin-4-yl)methyl)-2-(3-(3,4-dichlorophenyl)allyl)-8-(methylsulfonyl)-1,2,3,4-tetrahydro-5H-pyrido[4,3-b]indole-5-carboxamide]
Haemonchus contortus L3
  minimal effective concentration: 5.7 µM
D. immitis microfilariae
  minimal effective concentration: 3.3 µM

Reference: patent publication US10570129B2 (Zoetis Services LLC, priority 2015, dated 2020)
